Data: US7445931B2, “Compositions and methods for enrichment of neural stem cells using ceramide analogs” (Bresagen, Inc., priority 2002, dated 2008)

Key:
[1] = system: seeded sfEBMs derived from HESC colonies; assay: S18 treatment of seeded serum free embryoid bodies (sfEBMs), morphology and DAPI staining; assay type: cell-based, human
Text: sfEBMs were derived from domed HESC colonies, grown in suspension for 24 days with one passage, and seeded to polyornithine/laminin coated chamber slides in DMEM/F12, supplemented with 1×N2 (Gibco), and 1% FCS.
Apoptosis in seeded serum free embryoid bodies was monitored by morphological observation of cell death and DAPI staining to reveal apoptotic nuclei. Apoptotic nuclei were observed as obviously fragmented and degenerating nuclei, with small punctuate patterns of DAPI staining. Rosette regions from essentially serum free embryoid bodies in suspension were passaged further in the same medium, either withdrawing S18 or culturing the embryoid bodies for an additional 4 to 8 days in the presence of S18. Rosette regions were then seeded onto polyornithine/laminin coated slides for analysis of proliferation and differentiation to neural lineages.

[2] = system: differentiating ES-J1 cells; assay: Apoptosis (TUNEL staining, cell death) in differentiating mouse ES cells incubated with ceramide analogs; assay type: cell-based; settings: for number of TUNEL stained cells: 15 hours with 75 μM S16 or S18, or 35 μM C2-ceramide
Experimental: In vitro neural differentiation of mouse ES cells (ES-J1, ES-D3) followed a serum deprivation protocol as described previously (Hancock, et al., 2000 Biochem. Biophys. Res. Commun., 271: 418-421). The differentiation stages are outlined in FIG. 2. Briefly, ES cells were grown on gamma-irradiated feeder fibroblasts for four days in Knockout DMEM/15% Knockout serum replacement, supplemented with ESGRO (LIF; Chemicon; Cat No. ESG1106) at a concentration of 10^3 units/ml medium. ES cells were then grown for another four days on gelatin-coated bacterial culture dishes without a fibroblast feeder layer, and were then grown for three days in Knockout DMEM/15% heat-inactivated ES qualified Fetal Bovine Serum, supplemented with 10^3 units LIF per ml of medium. Upon trypsinization, ES cells were transferred to bacterial culture dishes without gelatin, and embryoid body (EB) formation was induced for four days in Knockout DMEM/10% heat-inactivated ES qualified FBS without LIF (EB4 stage). On the fifth day, floating and loosely attached EBs were rinsed off and transferred to tissue culture dishes. The EBs were allowed to attach to the tissue culture dish surface by incubation for another 24 hours in Knockout DMEM with 10% heat-inactivated ES qualified fetal bovine serum. Neural differentiation due to serum deprivation was induced by cultivation of the EBs for three days in DME/12 (50/50), supplemented with 1×N2 (Invitrogen/Life Technologies; Cat No. 17502, dilution of 1:100) but without serum (EB8 stage). Serum-deprived EBs were then trypsinized, plated on poly-L-ornithine/laminin-coated tissue culture dishes and grown for four days in DMEM/F12 (50/50), supplemented with N2 and 10 ng/ml FGF-2, but without serum. This incubation period is referred to as neuroprogenitor (NP) stage due to commitment of neuroepithelial precursor cells to neuroprogenitor cells, and/or due to the selective expansion of neural progenitor cells in the FGF-2 containing serum-free medium. These cells have committed during the EB stages and were expanded during the NP stage. NPs grown for 48 hours upon replating of trypsinized EBs were referred to as the NP2 stage. On the fifth day of NP formation, the medium was changed to Neurobasal (Invitrogen/Life Technologies; Cat No. 21103-049), with 5% heat-inactivated FBS, and the cells were incubated for another seven days. During this time, NPs fully differentiate to glial cells and neurons. Cells cultured for 24 hours or 96 hours upon changing the medium were referred to as the D1 or D4 stage, respectively.
ES cells were cultured and differentiated to the EB4, EB8, NP2, or D4 stage following the protocol as described above. The ceramide analog S18 was dissolved in ethanol at a concentration of 100 mM and then added to the cells at a final concentration of 75 μM in medium. The cells at the EB8 stage were incubated for 48 hours in the presence of the ceramide analog and were then transplanted into mouse brains.
Differentiating ES cells were grown on cover slips and fixed with 4% paraformaldehyde in phosphate-buffered saline (PBS). Fixed cells were permeabilized with 0.5% Triton X-100 in PBS for 5 minutes at room temperature and unspecific binding sites were saturated by incubation with 3% ovalbumin in PBS for 1 hour at 37° C. The cover slips were then incubated with 5 μg/ml primary antibody (anti-ceramide clone 15B4 mouse IgM, Alexis; anti-PAR-4 rabbit IgG, Santa Cruz; anti-PCNA rabbit IgG, Santa Cruz; anti-nestin clone 401 rat IgG, BD Pharmingen) in 0.1% ovalbumin/PBS, followed by incubation with the appropriate fluorescence-labeled secondary antibody (5 μg/ml Alexa 546 conjugated anti-mouse IgG, Molecular Probes; Alexa 488 conjugated anti-rabbit IgG, Molecular Probes, Cy3 conjugated anti-mouse IgM, Jackson) for 2 hours at 37° C. The nuclei were stained by treatment with 2 μg/ml Hoechst 33258 in PBS for 30 minutes at room temperature. […]

Oct-4 = Oct-4 immunoblotting of EB8 stage cells incubated with S18; assay type: cell-based, mouse; settings: EB8 stage cells incubated with 75 μM S18 for 24 hours
Experimental: (§1) In vitro differentiating ES cells at stage EB8 were incubated for […] with 75 μM S18, or 35 μM N-acyl sphingosine or other ceramide analogs. Protein was isolated from cells incubated with S18 for 24 hours and from untreated cells, separated by SDS-PAGE, and the expression of Oct-4 was analyzed by immunoblotting.

EB8-derived cells = assay: Injection of ceramide analog treated EB8-derived cells into mouse brain, teratoma formation; assay type: in vivo, C57BL6 mice
Experimental: as §1
Prior to injection into the mouse brain, ES cells were labeled with Vybrant-DiI (rhodamine fluorescence) for permanent vital staining and were mixed with India ink in order to track the injection channel and cell migration/tissue integration. 1×10^4 of the untreated ES-J1 cells were injected, while 2×10^4 of the S18-treated cells were injected in order to control for the percentage of cells lost to apoptosis. The ES cells were injected into the right brain hemisphere (bregma—1.5 mm, 1 mm lateral of central suture, 2.0 mm deep) of 8-10 day old C57BL6 mice using a Hamilton syringe. After 7-21 days, the mice were sacrificed, the brain isolated and fixed with 10% PBS-buffered formalin. The brains were Vibratome sectioned at 100 μm. The distribution of the injected cells was determined by fluorescence microscopy.

With `CCCCCCCC/C=C\CCCCCCCC(=O)NC(CO)CO` [S18, N-(2-hydroxy-1-(hydroxymethyl)ethyl)-oleoylamide] the “time until effect was observed” value ([1]; 6, 8 or 10 μM S18) was ≤ 24 h, the “effect on neural rosette structures” value ([1]; 6, 8 or 10 μM S18 for 36 hours) was “did not appear to be adversely affected” and the “induction of apoptosis in the culture” value ([1]; 6, 8 or 10 μM S18 for 36 hours) was “induced apoptosis of a large proportion of the culture”. The cell death ([1]; 36 hours exposure to 6 μM S18) was “a high proportion of cells within these cultures have been killed”, the cell death ([1]; 36 hours exposure to 8 μM S18) was “a high degree of cell death is apparent” and the cell death ([2]; EB8 and NP2 stages, 20 hours with 75 μM S18) was “high degree of cell death”. The “number of TUNEL stained cells” value ([2]; EB8 stage) was 45±10%, the “number of TUNEL stained cells” value ([2]; NP2 stage) was 70±10% and the “effect on differentiated neurons (cell death)” value ([2]; differentiated neurons, 20 hours with 75 μM S18) was “unaffected”. The “Oct-4 immunostaining relative to untreated control cells” value (Oct-4) was 25%, the “decrease in Oct-4 protein levels” value (Oct-4) was 75% and the teratoma formation (EB8-derived cells; EB8-derived cells treated with S18, injected into mouse brain, ten days after injection) was “did not show teratoma formation”. The “migration and integration of injected cells” value (EB8-derived cells; S18-treated EB8-derived cells, Vybrant diI stained, host killed after 21 days) was “migrated to the hippocampus, and integrated into the host's brain tissue”.
